{
  "source": "paper PMC12860872",
  "about": "“Preclinical evaluation of DOTAGA.Glu.(FAPI)2 and DO3A.Glu.(FAPI)2 as theranostics with human dosimetry extrapolation to lutetium-177 and terbium-161 analogs” (European Journal of Nuclear Medicine and Molecular Imaging, 2025)",
  "experiment": "Extrapolated human dosimetry (OLINDA/EXM, ICRP-89 phantoms)",
  "procedure": "To address inter-animal variability, the TIACs for each source organ were calculated from both the mean nTACs and the nTACs obtainend from fitting the mean ± 1 standard deviation (SD) of the normalized time-activity data, providing upper and lower bounds.\nThe mice-to-human TIAC extrapolation accounted for species-specific differences in relative source organ masses, m(organ), as compared to the total body weight (WB), for the mice (m) and human (h) models respectively.\nThe human organ masses, m(organ)h, were obtained from ICRP-89 adult male and female reference phantoms, while the murine organ masses, m(organ)m, were derived from the standard MOBY mouse model. The extrapolated human TIACs, TIACh were entered in the OLINDA/EXM software to compute the absorbed doses to target organs and the effective dose for adult male, female, and gender-averaged human models. […]\nThe TIACs, for [177Lu]Lu-DOTAGA.Glu.(FAPI)2 and [177Lu]Lu-DO3A.Glu.(FAPI)2, were determined by time integration of the nTACs. To account for the inter-animal variability, the TIACs for each source organ were calculated using both the mean nTACs and the nTACs obtainend from fitting the mean ±1 standard deviation (SD) of the normalized time-activity data. This approach provided the upper and the lower bounds for the estimated TIACs.\nThe mice-to-human TIAC extrapolation was obtained considering the different (species-specific) relative source organ masses, m(organ), as compared to the total body weight (WB), for the mice (m) and human (h) models respectively.\nThe human organ masses, m(organ)h, were obtained from the adult male and female reference models phantoms defined in ICRP-89, while the murine organ masses, m(organ)m, were derived from the standard MOBY mouse model. The extrapolated human TIACs values, TIACh, for each source organ were input into the kinetic module of the OLINDA/EXM software (version 2.1, HERMES Medical Solutions AB, Stockholm, Sweden) to compute the absorbed doses to target organs and the effective dose for adult male, female, and gender-averaged human models. […]",
  "key": {"[1]": {"settings": "ICRP 89 Adult Female, extrapolated"}, "[2]": {"settings": "ICRP 89 Adult Male, extrapolated"}},
  "note": "Values joined by “and” are separate entries in the source; they are usually repeats but may differ in a detail not shown here. Identical values can stand only once.",
  "data": [
    {"smiles": "N#C[C@@H]1CC(F)(F)CN1C(=O)CNC(=O)c1ccnc2ccc(OCCCCNC(=O)CC[C@H](NC(=O)CCC(C(=O)O)N3CCN(CC(=O)[O-])CCN(CC(=O)[O-])CCN(CC(=O)[O-])CC3)C(=O)NCCCCOc3ccc4nccc(C(=O)NCC(=O)N5CC(F)(F)C[C@H]5C#N)c4c3)cc12.[161Tb+3]", "note": "(stereo partly drawn) [[^161Tb]Tb-DOTAGA.Glu.(FAPI)2]", "values": [
      {"measurement": "Absorbed dose (AD average) Adrenals", "setting": "[1]", "value": "2.06E-02", "unit": "mGy/Mbq"},
      {"measurement": "Absorbed dose (AD average) Brain", "setting": "[1]", "value": "4.11E-02", "unit": "mGy/Mbq"},
      {"measurement": "Absorbed dose (AD average) Breasts", "setting": "[1]", "value": "3.94E-02", "unit": "mGy/Mbq"},
      {"measurement": "Absorbed dose (AD average) Esophagus", "setting": "[1]", "value": "4.21E-02", "unit": "mGy/Mbq"},
      {"measurement": "Absorbed dose (AD average) Eyes", "setting": "[1]", "value": "4.11E-02", "unit": "mGy/Mbq"},
      {"measurement": "Absorbed dose (AD average) Gallbladder Wall", "setting": "[1]", "value": "4.47E-02", "unit": "mGy/Mbq"},
      {"measurement": "Absorbed dose (AD average) Heart Wall", "setting": "[1]", "value": "6.03E-02", "unit": "mGy/Mbq"},
      {"measurement": "Absorbed dose (AD average) Kidneys", "setting": "[1]", "value": "6.83E-02 ± 0.003 mGy/Mbq and 6.83E-02 mGy/Mbq"},
      {"measurement": "Absorbed dose (AD average) Left colon", "setting": "[1]", "value": "4.20E-02", "unit": "mGy/Mbq"},
      {"measurement": "Absorbed dose (AD average) Liver", "setting": "[1]", "value": "2.78E-01 ± 0.02 mGy/Mbq and 2.78E-01 mGy/Mbq"},
      {"measurement": "Absorbed dose (AD average) Lungs", "setting": "[1]", "value": "6.37E-02 ± 0.01 mGy/Mbq and 6.37E-02 mGy/Mbq"},
      {"measurement": "Absorbed dose (AD average) Osteogenic Cells", "setting": "[1]", "value": "1.23E-01 ± 0.01 mGy/Mbq and 1.23E-01 mGy/Mbq"},
      {"measurement": "Absorbed dose (AD average) Ovaries", "setting": "[1]", "value": "4.17E-02", "unit": "mGy/Mbq"},
      {"measurement": "Absorbed dose (AD average) Pancreas", "setting": "[1]", "value": "5.34E-02 ± 0.003 mGy/Mbq and 5.34E-02 mGy/Mbq"},
      {"measurement": "Absorbed dose (AD average) Rectum", "setting": "[1]", "value": "4.17E-02", "unit": "mGy/Mbq"},
      {"measurement": "Absorbed dose (AD average) Red Marrow", "setting": "[1]", "value": "4.59E-02 ± 0.01 mGy/Mbq and 4.59E-02 mGy/Mbq"},
      {"measurement": "Absorbed dose (AD average) Right colon", "setting": "[1]", "value": "4.24E-02", "unit": "mGy/Mbq"},
      {"measurement": "Absorbed dose (AD average) Salivary Glands", "setting": "[1]", "value": "1.73E-01 ± 0.01 mGy/Mbq and 1.73E-01 mGy/Mbq"},
      {"measurement": "Absorbed dose (AD average) Small Intestine", "setting": "[1]", "value": "4.17E-02", "unit": "mGy/Mbq"},
      {"measurement": "Absorbed dose (AD average) Spleen", "setting": "[1]", "value": "4.83E-02 ± 0.01 mGy/Mbq and 4.83E-02 mGy/Mbq"},
      {"measurement": "Absorbed dose (AD average) Stomach Wall", "setting": "[1]", "value": "4.21E-02", "unit": "mGy/Mbq"},
      {"measurement": "Absorbed dose (AD average) Thymus", "setting": "[1]", "value": "4.16E-02", "unit": "mGy/Mbq"},
      {"measurement": "Absorbed dose (AD average) Thyroid", "setting": "[1]", "value": "4.05E-02", "unit": "mGy/Mbq"},
      {"measurement": "Absorbed dose (AD average) Total Body", "setting": "[1]", "value": "6.01E-02 ± 0.01 mGy/Mbq and 6.01E-02 mGy/Mbq"},
      {"measurement": "Absorbed dose (AD average) Urinary Bladder Wall", "setting": "[1]", "value": "4.10E-02", "unit": "mGy/Mbq"},
      {"measurement": "Absorbed dose (AD average) Uterus", "setting": "[1]", "value": "4.14E-02", "unit": "mGy/Mbq"},
      {"measurement": "Effective dose (average)", "setting": "[1]", "value": "5.28E-02"},
      {"measurement": "Absorbed dose (AD average) Adrenals", "setting": "[2]", "value": "1.63E-02", "unit": "mGy/Mbq"},
      {"measurement": "Absorbed dose (AD average) Brain", "setting": "[2]", "value": "2.76E-02", "unit": "mGy/Mbq"},
      {"measurement": "Absorbed dose (AD average) Esophagus", "setting": "[2]", "value": "2.88E-02", "unit": "mGy/Mbq"},
      {"measurement": "Absorbed dose (AD average) Eyes", "setting": "[2]", "value": "2.76E-02", "unit": "mGy/Mbq"},
      {"measurement": "Absorbed dose (AD average) Gallbladder Wall", "setting": "[2]", "value": "3.50E-02", "unit": "mGy/Mbq"},
      {"measurement": "Absorbed dose (AD average) Heart Wall", "setting": "[2]", "value": "5.00E-02", "unit": "mGy/Mbq"},
      {"measurement": "Absorbed dose (AD average) Kidneys", "setting": "[2]", "value": "5.60E-02 ± 0.002 mGy/Mbq and 5.60E-02 mGy/Mbq"},
      {"measurement": "Absorbed dose (AD average) Left colon", "setting": "[2]", "value": "1.18E-01", "unit": "mGy/Mbq"},
      {"measurement": "Absorbed dose (AD average) Liver", "setting": "[2]", "value": "2.29E-01 ± 0.02 mGy/Mbq and 2.29E-01 mGy/Mbq"},
      {"measurement": "Absorbed dose (AD average) Lungs", "setting": "[2]", "value": "5.19E-02 ± 0.004 mGy/Mbq and 5.19E-02 mGy/Mbq"},
      {"measurement": "Absorbed dose (AD average) Osteogenic Cells", "setting": "[2]", "value": "1.24E-01 ± 0.01 mGy/Mbq and 1.24E-01 mGy/Mbq"},
      {"measurement": "Absorbed dose (AD average) Pancreas", "setting": "[2]", "value": "4.25E-02 ± 0.002 mGy/Mbq and 4.25E-02 mGy/Mbq"},
      {"measurement": "Absorbed dose (AD average) Prostate", "setting": "[2]", "value": "2.77E-02", "unit": "mGy/Mbq"},
      {"measurement": "Absorbed dose (AD average) Rectum", "setting": "[2]", "value": "1.17E-01", "unit": "mGy/Mbq"},
      {"measurement": "Absorbed dose (AD average) Red Marrow", "setting": "[2]", "value": "3.37E-02 ± 0.003 mGy/Mbq and 3.37E-02 mGy/Mbq"},
      {"measurement": "Absorbed dose (AD average) Right colon", "setting": "[2]", "value": "7.38E-02", "unit": "mGy/Mbq"},
      {"measurement": "Absorbed dose (AD average) Salivary Glands", "setting": "[2]", "value": "1.43E-01 ± 0.01 mGy/Mbq and 1.43E-01 mGy/Mbq"},
      {"measurement": "Absorbed dose (AD average) Small Intestine", "setting": "[2]", "value": "5.69E-02 ± 0.02 mGy/Mbq and 5.69E-02 mGy/Mbq"},
      {"measurement": "Absorbed dose (AD average) Spleen", "setting": "[2]", "value": "3.92E-02 ± 0.01 mGy/Mbq and 3.92E-02 mGy/Mbq"},
      {"measurement": "Absorbed dose (AD average) Stomach Wall", "setting": "[2]", "value": "4.15E-02", "unit": "mGy/Mbq"},
      {"measurement": "Absorbed dose (AD average) Testes", "setting": "[2]", "value": "2.65E-02", "unit": "mGy/Mbq"},
      {"measurement": "Absorbed dose (AD average) Thymus", "setting": "[2]", "value": "2.77E-02", "unit": "mGy/Mbq"},
      {"measurement": "Absorbed dose (AD average) Thyroid", "setting": "[2]", "value": "2.76E-02", "unit": "mGy/Mbq"},
      {"measurement": "Absorbed dose (AD average) Total Body", "setting": "[2]", "value": "4.51E-02 ± 0.01 mGy/Mbq and 4.51E-02 mGy/Mbq"},
      {"measurement": "Absorbed dose (AD average) Urinary Bladder Wall", "setting": "[2]", "value": "2.75E-02", "unit": "mGy/Mbq"},
      {"measurement": "Effective dose (average)", "setting": "ICRP 89 Adult Male, extrapolated, in mSv/MBq (unit assumed)", "value": "4.69E-02"},
      {"measurement": "higher tissue doses vs. the 177Lu-labeled analogs", "setting": "human extrapolation, average over tissues", "value": "~ 38%"}
    ]}
  ]
}
